# From patent US20130053336A1, “TREATMENT OF CHLAMYDIACEAE INFECTIONS BY MEANS OF BETA-LACTAMS” (priority 2010, published 2013)
# Entries after “also recorded” stand apart in the source; their conditions may differ.
# Legend:
# [1] = tested on: Chlamydia trachomatis L2 serovar 16S rRNA; assay: 16S rRNA expression by RT-PCR; assay type: cell-based; conditions: 100 hpi
# Source text: HeLa cells were infected with the Chlamydia trachomatis L2 serovar and treated or not treated with penicillin G at 3 hpi. At 100 hpi, the cells were collected and the RNA extracted carefully to avoid DNA contamination. Half of the isolated RNA was used for reverse transcription. The RNA and cDNA were amplified by PCR with primers for 16S (bacterial) and 18S (eukaryotic) rRNA in order to study bacterial activity and to verify cDNA quality and quantity. PCR of the RNA is used to verify the absence of DNA contamination. It also indicates the absence of contaminant in the PCR. […] Roughly 1×10^5 HeLa cells were infected and exposed or not exposed to penicillin G, as described above. At 100 hpi, total RNA were isolated using the RNeasy Plus Mini Kit (Qiagen, Hilden, Germany). The samples were treated with DNase I for 1 hour at 37° C. The enzyme was then denatured at 70° C. for 10 min. The RNA were reverse-transcribed into cDNA using random hexamer primers and AffinityScript Multiple Temperature Reverse Transcriptase (Agilent, Santa Clara, Calif., USA) and by following the manufacturer's instructions for RT-PCR. cDNA and RNA were amplified by PCR with Tag Polymerase (Invitrogen, Carlsbad, Calif., USA) in order to verify the absence of DNA contamination. The primers used to amplify 16S rRNA are: A semi-quantitative analysis of the PCR products was carried out by agarose gel electrophoresis and UV detection.
# Chlamydia muridarum = assay: Murine model of genital infection (hydrosalpinx); assay type: in vivo, C57B1/6 mice; conditions: 5 mg/ml in drinking water for 20 days from day 10, read 60 days later
# Source text: The mice were infected by vaginal route with 10^7 IFU of Chlamydia muridarum. […] The antibiotic treatment was stopped after 20 days and the mice were kept isolated for an additional 60 days. The mice were then sacrificed, the appearance of the genital tract analyzed and the presence of hydrosalpinx (arrows) sought.
# C57B1/6 mice were infected with Chlamydia muridarum, a Chlamydia species that infects mice and guinea pigs and is genetically close to Chlamydia trachomatis. Estrous cycles in the mice were initiated by injection of progesterone, and then the mice were infected vaginally after 3 days (10^7 IFU). Ten days after infection, the mice were divided into three groups, a negative control group not receiving any antibiotic, a positive control group receiving doxycycline (5 mg/ml) and a test group receiving penicillin G (5 mg/ml). The duration of the treatment was 20 days; the antibiotics, doxycycline and penicillin G, were added to the mice's drinking water. After treatment, the mice were kept isolated for 60 days in order for persistent bacteria to reinitiate their cycle and for sequelae to develop. The mice were then sacrificed, the appearance of the genital tract analyzed and the presence of hydrosalpinx sought. Various organs were also taken.
# The effects of penicillin G were tested in a murine model of genital infection. […]
# [2] = tested on: HeLa cells infected with Chlamydia trachomatis; assay: Sensitivity to apoptosis of infected cells (staurosporine); assay type: cell-based
# Description: A: HeLa cells were infected with Chlamydia trachomatis and treated or not treated with penicillin G at 3 hpi. At 21 hpi, staurosporine was added to the culture medium. The cells were fixed at 48 hpi and stained with an antibody against Chlamydia sp. (green in the original figure) and Hoechst (blue in the original figure).
# B: Normal or apoptotic nuclei associated with inclusions were counted and the percentage of infected cells in apoptosis was calculated.
# HeLa cells were infected in the absence (white bar) or presence of penicillin G (100 U/ml) added at […] (light gray bar) or at 29 hpi (dark gray bar). Staurosporine was added at 31 hpi. The cells were fixed and observed as described below. The apoptotic or normal nuclei associated with inclusions were counted, and the percentages of apoptotic infected cells were determined. In 2 hours, treatment with penicillin G induces a loss of control by Chlamydia trachomatis over host cell apoptosis.
# The effect of treatment with penicillin G on the anti-apoptotic activity of Chlamydia was determined. HeLa cells cultured in monolayers on slides were infected with serovar L2 and treated with penicillin G at 3 hpi or 29 hpi. At 25 hpi or 32 hpi, respectively, the cells were incubated with 1 μM staurosporine, fixed at 40 hpi or 48 hpi and prepared for epifluorescence microscopy. The percentages of infected cells containing apoptotic nuclei were calculated.
# [3] = tested on: serovar L2 of the Chlamydia trachomatis LGV biovar, serovar D of the trachoma biovar, Chlamydia muridarum; assay: Abnormal inclusions in different host cell types, serovars and Chlamydia species; assay type: cell-based; conditions: THP-1, RL95-2, HeLa, C. muridarum, penicillin G at 3 hpi
# Source text: In blue in the original figure; Hoechst, in green in the original figure: anti-Chlamydia sp. Image taken at 24 hpi (RL95-2/Chlamydia L2; HeLa/Chlamydia-D; HeLa/C. muridarum) or at 48 hpi (THP-1/Chlamydia-L2; THP-1/Chlamydia-D). Scale: 10 μm.
# In order to examine whether the effects of penicillin G on bacterial infectivity depend on the strain or the serovar, ATCC serovar L2 and C. trachomatis serovar D, graciously provided by Dr. de Barbeyrac (University of Bordeaux II, Bordeaux, France) were used. C. muridarum was obtained from Dr. Roger Rank (University of Arkansas, Little Rock, Ark., USA). The bacteria were propagated as a matter of routine in HeLa cells as described above and stored at −80° C. before use (Scidmore, M. A. Curr Protoc Microbiol Chapter 1: Unit 11A 11, 2005). The number of inclusion forming units (IFU) was determined by immunofluorescence, as described above (Verbeke, P. et al. PLoS Pathog 2:e45, 2006).
# To examine the effects of penicillin G on cell infection with Chlamydia, the host cells were cultivated up to 70% confluence without antibiotics, and then were infected with C. trachomatis strain L2 or D, or with C. muridarum at 1 IFU. The infections were carried out at 37° C. for 90 minutes with centrifugation, followed by a washing of extracellular bacteria. […]
smiles,measurement,setting,value
"CC1(C)S[C@@H]2[C@H](NC(=O)Cc3ccccc3)C(=O)N2[C@H]1C(=O)O [Penicillin G, benzylpenicillin]",16S rRNA expression in infected cells,[1],"do not produce bacterial RNA; also recorded: express 18S RNA, but not 16S"
same,appearance of the genital tract / hydrosalpinx,Chlamydia muridarum,normal appearance
same,speed of loss of control over host cell apoptosis,"[2]; penicillin G 100 U/ml at 29 hpi, staurosporine at 31 hpi",≤ 2 h
same,apoptotic cells,"[2]; penicillin G at 2 hpi or 29 hpi, staurosporine at 31 hpi, observed 8 hours later",Roughly 38%
same,infected cells showing signs of apoptosis,"[2]; penicillin G, 4 μM staurosporine at 21 hpi, read at 48 hpi",70.39%
same,"generation of abnormal inclusions in other host cells, serovars, species",[3],"independent of the type of host cell, serovar, biovar or even species of Chlamydia bacterium used; also recorded: exhibiting abnormal inclusions"
